Measured values reported in US20230117034A1, “PYRAZOLOTRIAZINES” (Bayer Aktiengesellschaft, priority 2019, published 2023).

How the values were obtained:
[1] = molecular target: T1, CDK12 (nuclear staining in CAL-120 cells) (Homo sapiens, UniProt Q9NYV4); assay: CDK12 nuclear protein level: immunofluorescence/high content analysis (CAL-120); type: cell-based; conditions: for DC50: CAL-120 cells, 24 h, immunofluorescence, 50% reduction of nuclear CDK12 staining intensity, median, read-out: CDK12 degradation IF, DC50- [mol/l] (median); for (IC50 CDK12 high ATP) to (Degradation DC50 CDK12) ratio: ratio of IC50 CDK12 high ATP kinase assay to DC50 CDK12 degradation (IF, CAL-120)
T1 construct: endogenous in cells; host or cells: CAL-120 human breast cancer cells (DSMZ ACC 459)
Summary of the method: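 DC50 is the degrader concentration that halves nuclear CDK12 immunofluorescence relative to controls, measured by high-content imaging. CAL-120 cells were exposed to compound for 24 h at 37 °C before PFA fixation, and signal was normalized to DMSO and control wells.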

[2] = molecular target: T2, CDK12 protein level in CAL-120 breast cancer cells (Homo sapiens, UniProt Q9NYV4); assay: CDK12 protein level: Protein Simple (CDK12, CAL-120); type: cell-based; conditions: CAL-120 cells, 18 h with compound, CDK12/HSP90 peak area ratio vs vehicle, median, read-out: CDK12 protein level in CAL-120 breast ca cells, DC50-[mol/l] (median)
T2 construct: endogenous in cells; host or cells: CAL-120 human breast cancer cells (DSMZ ACC 459)
Experimental: CAL-120 human breast cancer cells (DSMZ ACC 459) were seeded at 300,000 cells/well in 6-well plates containing 2 mL of growth medium (DMEM, 10% FCS, glutamine) and incubated for 24 h at 37° C. in an humidified incubator. Test compounds were added at various concentrations, control wells received solvent (DMSO), and the plates were incubated for another 18 h at 37° C. Cells were washed 2 times with PBS and lysed in 75 microL lysis buffer (MSD-Puffer (MSD, #R60TX-2), +1% 505S+PhosSTOP (Roche #04906837001)+complete mini (Roche #04693159001)) by scraping. The lysates were pushed 2 times through Qiashedders followed by centrifugation at 14,000 rpm for 30-50 sec. The supernatant was stored at −20° C. Proteins were separated by applying 0.4 microgramms of protein lysate to Protein Simple 66-440 kDa (Protein Simple #SM-S002) size assay columns on a PEGGY SUE or SALLY SUE equipment according to the supplier's manual. CDK12 and HSP90 (loading control) were detected using anti-human CDK12 antibody (Cell Signaling Technologies (CST) #11793) at 1:25 dilution and anti-human HSP90 antibody (CST #4877) at 1:5,000 dilution. CDK12 and HSP90 peak areas were determined using Protein Simple Compass software. Ratio of CDK12/HSP90 peak areas were calculated for each sample, and […] values (degrading concentration to achieve 50% reduction relative to vehicle treated control) were determined by means of a 4 parameter fit.

[3] = molecular target: T3, CDK9/CycT1 (Homo sapiens, UniProt P50750); assay: CDK9/CycT1 high ATP kinase assay (TR-FRET, 2 mM ATP); type: biochemical; conditions: 2 mM ATP (high ATP); median; read-out: CDK9/CyclinT1, 2 mM ATP (high ATP), IC50 (median)
T3 construct: Recombinant full-length His-tagged human CDK9 and CycT1; purchased Life Technologies PV4131; host or cells: insect cells
Summary of the method: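 Full-length His-tagged human CDK9/CycT1 (insect cell, ~0.5 μg/mL) preincubated 15 min at 22 °C with compound in Tris pH 8.0, MgCl2, DTT buffer before reaction with biotinylated peptide substrate at high ATP (2 mM).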

[4] = test system: BRCA1 mRNA expression in CAL-120 cells; assay: qRT-PCR assay: BRCA1 mRNA expression in CAL-120; type: cell-based; conditions: Homo sapiens; Inhibition of BRCA1 mRNA expression in CAL-120 cells; median; read-out: RTqPCR-CAL-120, IC50, BRCA1 (median)
Experimental: 3. qRT-PCR Assay: BRCA, ATR, MCL1 in MDA-MB-231, CAL-120
Tissue cultured human MDA-MB-231 human breast cancer cells were plated in 500 microL per well at 200,000 cells/well in a 24 well microtiter plate. After 24 h, the cells were exposed continuously for 24 h to test substances (substances were added with Tecan HP 0300 Dispenser). RNA was prepared using Qiagen RNeasy MiniKit (#74106), RNA was quantified using a NanoDrop Equipment, and 600 nano gamms of RNA was coverted to cDNA using a SuperScript VILO kit (Thermofisher #11755050) followed by qPCR amplification. BRCA1 and ATR gene expression was measured by RT-qPCR and normalised to GAPDH housekeeping gene expression. qPCR primer sets have been purchased from Thermo Fisher Scientific/Applied Biosystems: BRCA1, #Hs 01556193; ATR, #Hs 00992123; GAPDH, #Hs 03929097.

T1 sequence (Q9NYV4 whole entry): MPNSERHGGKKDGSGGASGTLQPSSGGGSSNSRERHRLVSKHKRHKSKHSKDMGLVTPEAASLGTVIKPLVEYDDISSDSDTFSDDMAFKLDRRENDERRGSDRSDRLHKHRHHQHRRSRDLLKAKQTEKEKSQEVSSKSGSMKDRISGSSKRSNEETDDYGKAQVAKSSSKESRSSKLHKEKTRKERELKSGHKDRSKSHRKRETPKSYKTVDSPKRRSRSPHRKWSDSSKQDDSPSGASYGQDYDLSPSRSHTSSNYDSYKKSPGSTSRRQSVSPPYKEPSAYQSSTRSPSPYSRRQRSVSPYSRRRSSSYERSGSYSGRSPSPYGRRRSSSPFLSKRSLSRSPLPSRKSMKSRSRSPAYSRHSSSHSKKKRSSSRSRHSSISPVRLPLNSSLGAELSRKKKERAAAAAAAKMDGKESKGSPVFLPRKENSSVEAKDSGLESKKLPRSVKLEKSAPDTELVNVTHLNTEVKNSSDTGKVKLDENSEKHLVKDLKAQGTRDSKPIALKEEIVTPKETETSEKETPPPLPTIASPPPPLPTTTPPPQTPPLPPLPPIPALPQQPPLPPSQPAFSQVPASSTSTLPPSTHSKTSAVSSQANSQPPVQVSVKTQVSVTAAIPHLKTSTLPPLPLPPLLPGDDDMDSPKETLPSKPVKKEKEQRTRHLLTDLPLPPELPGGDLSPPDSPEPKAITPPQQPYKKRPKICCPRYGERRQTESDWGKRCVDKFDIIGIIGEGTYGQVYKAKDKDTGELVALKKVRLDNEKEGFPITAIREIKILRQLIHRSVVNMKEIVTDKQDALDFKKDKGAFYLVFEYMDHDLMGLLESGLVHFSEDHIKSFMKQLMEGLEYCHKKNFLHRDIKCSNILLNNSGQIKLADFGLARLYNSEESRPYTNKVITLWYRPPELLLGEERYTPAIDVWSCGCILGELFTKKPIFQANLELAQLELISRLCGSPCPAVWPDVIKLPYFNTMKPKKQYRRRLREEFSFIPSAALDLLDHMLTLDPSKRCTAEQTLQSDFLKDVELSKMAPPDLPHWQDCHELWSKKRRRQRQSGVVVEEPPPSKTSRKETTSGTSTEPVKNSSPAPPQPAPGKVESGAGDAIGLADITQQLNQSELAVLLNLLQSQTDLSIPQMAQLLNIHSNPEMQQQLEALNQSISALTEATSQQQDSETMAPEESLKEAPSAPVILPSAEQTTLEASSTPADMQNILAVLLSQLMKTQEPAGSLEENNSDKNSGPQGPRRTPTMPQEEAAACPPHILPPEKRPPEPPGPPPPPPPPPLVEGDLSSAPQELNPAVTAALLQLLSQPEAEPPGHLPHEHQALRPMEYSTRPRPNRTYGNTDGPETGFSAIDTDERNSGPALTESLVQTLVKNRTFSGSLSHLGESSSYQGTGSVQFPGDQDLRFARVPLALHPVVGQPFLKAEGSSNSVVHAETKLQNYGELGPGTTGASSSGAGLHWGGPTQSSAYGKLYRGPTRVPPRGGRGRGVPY
T1 sequence (O75909 whole entry partner): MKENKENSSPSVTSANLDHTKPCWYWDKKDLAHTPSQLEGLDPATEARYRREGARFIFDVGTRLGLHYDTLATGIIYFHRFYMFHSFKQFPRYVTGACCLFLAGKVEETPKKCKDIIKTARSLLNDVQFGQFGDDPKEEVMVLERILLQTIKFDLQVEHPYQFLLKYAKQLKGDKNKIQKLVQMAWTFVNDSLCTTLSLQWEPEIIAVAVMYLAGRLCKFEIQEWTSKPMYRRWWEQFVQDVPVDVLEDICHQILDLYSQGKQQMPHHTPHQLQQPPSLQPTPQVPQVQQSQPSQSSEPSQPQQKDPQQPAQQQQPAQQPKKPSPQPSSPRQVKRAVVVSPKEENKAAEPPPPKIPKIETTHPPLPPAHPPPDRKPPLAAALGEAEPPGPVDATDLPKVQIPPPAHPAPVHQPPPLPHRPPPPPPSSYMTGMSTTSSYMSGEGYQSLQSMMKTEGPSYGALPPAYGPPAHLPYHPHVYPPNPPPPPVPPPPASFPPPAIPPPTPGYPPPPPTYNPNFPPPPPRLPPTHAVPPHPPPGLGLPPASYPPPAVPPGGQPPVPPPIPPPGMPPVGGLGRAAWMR
T2 sequence (Q9NYV4 whole entry): as the sequence (Q9NYV4 whole entry) above
T2 sequence (O75909 whole entry partner): as the sequence (O75909 whole entry partner) above
T3 sequence (P50750 whole entry): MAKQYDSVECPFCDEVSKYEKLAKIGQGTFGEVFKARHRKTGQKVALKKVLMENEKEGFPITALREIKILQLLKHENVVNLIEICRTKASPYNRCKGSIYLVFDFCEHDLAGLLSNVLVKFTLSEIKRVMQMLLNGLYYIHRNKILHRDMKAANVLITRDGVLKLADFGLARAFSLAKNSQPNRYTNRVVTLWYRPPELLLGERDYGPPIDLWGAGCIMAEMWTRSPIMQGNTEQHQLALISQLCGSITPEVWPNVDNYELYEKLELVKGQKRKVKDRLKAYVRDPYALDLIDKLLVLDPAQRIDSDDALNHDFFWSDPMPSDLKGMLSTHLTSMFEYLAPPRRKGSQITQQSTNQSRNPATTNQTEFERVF
T3 sequence (O60563 whole entry partner): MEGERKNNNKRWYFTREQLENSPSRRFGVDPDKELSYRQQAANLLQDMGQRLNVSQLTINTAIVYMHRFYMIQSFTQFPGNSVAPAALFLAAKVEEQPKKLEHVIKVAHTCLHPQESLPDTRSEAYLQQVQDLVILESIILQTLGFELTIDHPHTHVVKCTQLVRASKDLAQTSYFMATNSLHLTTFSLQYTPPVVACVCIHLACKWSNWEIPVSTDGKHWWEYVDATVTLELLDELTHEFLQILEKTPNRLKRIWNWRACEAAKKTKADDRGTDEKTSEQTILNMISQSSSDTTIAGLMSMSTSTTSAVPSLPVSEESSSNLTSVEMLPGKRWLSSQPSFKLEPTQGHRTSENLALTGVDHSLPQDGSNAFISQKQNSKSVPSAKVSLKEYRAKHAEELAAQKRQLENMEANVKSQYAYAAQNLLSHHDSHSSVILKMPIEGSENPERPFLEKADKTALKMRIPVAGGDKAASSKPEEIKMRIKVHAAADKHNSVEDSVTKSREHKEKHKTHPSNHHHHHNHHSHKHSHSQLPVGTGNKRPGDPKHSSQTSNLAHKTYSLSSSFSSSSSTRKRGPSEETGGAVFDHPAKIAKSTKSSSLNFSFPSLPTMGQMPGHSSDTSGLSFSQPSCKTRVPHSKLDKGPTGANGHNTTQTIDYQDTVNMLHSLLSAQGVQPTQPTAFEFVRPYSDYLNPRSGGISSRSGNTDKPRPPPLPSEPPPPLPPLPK

In the case of `FC(F)(F)c1cnn2c(NCc3nc4ccccc4[nH]3)nc(N3CCOCC3)nc12` [Example 241, N-[(1H-benzimidazol-2-yl)methyl]-2-(morpholin-4-yl)-8-(trifluoromethyl) pyrazolo[1,5-a][1,3,5]triazin-4-amine], the DC50 [1] is reported as 4.34 nM, the “(IC50 CDK12 high ATP) to (Degradation DC50 CDK12) ratio” value [1] is reported as 186 and the DC50 [2] is reported as 7.29 nM. The IC50 [3] was > 20000 nM.

With `C[C@H]1CN(c2nc(NCc3nc4ccccc4[nH]3)n3ncc(Br)c3n2)CCN1` [Example 169, N-[(1H-benzimidazol-2-yl)methyl]-8-bromo-2-[(3S)-3-methylpiperazin-1-yl]pyrazolo[1,5-a][1,3,5]triazin-4-amine] the DC50 [1] was 1.09 nM, the “(IC50 CDK12 high ATP) to (Degradation DC50 CDK12) ratio” value [1] was 12610 and the DC50 [2] was 1.04 nM. For the same compound, the IC50 [3] was > 20000 nM.

In the case of `CC(C)c1cnn2c(NCc3nc4ccccc4[nH]3)nc(Nc3ccncc3)nc12` [Example 14, N^4-[(1H-benzimidazol-2-yl)methyl]-8-(propan-2-yl)-N^2-(pyridin-4-yl)pyrazolo[1,5-a][1,3,5]triazine-2,4-diamine], the DC50 [1] is reported as 14.6 nM, the “(IC50 CDK12 high ATP) to (Degradation DC50 CDK12) ratio” value [1] is reported as >1123 and the DC50 [2] is reported as 9.38 nM. The IC50 [3] was > 20000 nM.

For `Clc1cnn2c(NCc3nc4ccccc4[nH]3)nc(N3CCOCC3)nc12` [Example 15, N-[(1H-benzimidazol-2-yl)methyl]-8-chloro-2-(morpholin-4-yl)pyrazolo[1,5-a][1,3,5]triazin-4-amine], the DC50 [1] was 5.05 nM, the “(IC50 CDK12 high ATP) to (Degradation DC50 CDK12) ratio” value [1] was 1191 and the DC50 [2] was 2.98 nM. The IC50 [4] was 29.8 nM and the IC50 [3] was > 20000 nM.

In the case of `OC1CCCN(c2nc(NCc3nc4ccccc4[nH]3)n3ncc(Br)c3n2)C1` (racemic) [Example 16, (rac)-1-(4-{[(1H-benzimidazol-2-yl)methyl]amino}-8-bromopyrazolo[1,5-a][1,3,5]triazin-2-yl)piperidin-3-ol], the DC50 [1] is reported as 4.54 nM, the “(IC50 CDK12 high ATP) to (Degradation DC50 CDK12) ratio” value [1] is reported as 1528 and the DC50 [2] is reported as 58.1 nM. The IC50 [3] was > 20000 nM.

`Fc1ccc2[nH]c(CNc3nc(N4CCNCC4)nc4c(C5CC5)cnn34)nc2c1` [Example 190, 8-cyclopropyl-N-[(5-fluoro-1H-benzimidazol-2-yl)methyl]-2-(piperazin-1-yl)pyrazolo[1,5-a][1,3,5]triazin-4-amine] was tested, and the DC50 [1] was 0.553 nM, the “(IC50 CDK12 high ATP) to (Degradation DC50 CDK12) ratio” value [1] was 11161 and the DC50 [2] was 0.307 nM. The IC50 [3] was > 20000 nM.

`COc1cccc2[nH]c(CNc3nc(N4C[C@@H]5CCCN[C@@H]5C4)nc4c(C5CC5)cnn34)nc12` [Example 214, 8-cyclopropyl-N-[(4-methoxy-1H-benzimidazol-2-yl)methyl]-2-[(4aS,7aS)-octahydro-6H-pyrrolo[3,4-b]pyridin-6-yl]pyrazolo[1,5-a][1,3,5]triazin-4-amine] was tested, and the DC50 [1] was 3.92 nM, the “(IC50 CDK12 high ATP) to (Degradation DC50 CDK12) ratio” value [1] was 2062 and the IC50 [3] was > 20000 nM.

In the case of `Cc1ccc2[nH]c(CNc3nc(N4CCN(C)CC4)nc4c(C5CC5)cnn34)nc2c1` [Example 210, 8-cyclopropyl-N-[(5-methyl-1H-benzimidazol-2-yl)methyl]-2-(4-methylpiperazin-1-yl)pyrazolo[1,5-a][1,3,5]triazin-4-amine], the DC50 [1] is reported as 1.41 nM, the “(IC50 CDK12 high ATP) to (Degradation DC50 CDK12) ratio” value [1] is reported as >14143 and the IC50 [3] is reported as > 20000 nM.

`COc1cccc2[nH]c(CNc3nc(N4CCOCC4)nc4c(C5CC5)cnn34)nc12` [Example 213, 8-cyclopropyl-N-[(4-methoxy-1H-benzimidazol-2-yl)methyl]-2-morpholino-pyrazolo[1,5-a][1,3,5]triazin-4-amine] was tested, and the DC50 [1] was 2.11 nM, the “(IC50 CDK12 high ATP) to (Degradation DC50 CDK12) ratio” value [1] was 497 and the IC50 [3] was > 20000 nM.

For `CO[C@H]1CCN(c2nc(NCc3nc4ccccc4[nH]3)n3ncc(Br)c3n2)C1` [Example 222, N-[(1H-benzimidazol-2-yl)methyl]-8-bromo-2-[(3S)-3-methoxypyrrolidin-1-yl]pyrazolo[1,5-a][1,3,5]triazin-4-amine], the DC50 [1] was 48.8 nM, the “(IC50 CDK12 high ATP) to (Degradation DC50 CDK12) ratio” value [1] was 123 and the IC50 [3] was > 20000 nM.

`Cc1cc(-c2cnn3c(NCc4nc5ccccc5[nH]4)nc(N4CCN(C)CC4)nc23)ccn1` [Example 243, N-[(1H-benzimidazol-2-yl)methyl]-2-(4-methylpiperazin-1-yl)-8-(2-methylpyridin-4-yl)pyrazolo[1,5-a][1,3,5]triazin-4-amine] was tested, and the DC50 [1] was 267 nM, the “(IC50 CDK12 high ATP) to (Degradation DC50 CDK12) ratio” value [1] was >75 and the IC50 [3] was > 20000 nM.

`C[C@@H]1CN(c2nc(NCc3nc4c(F)cccc4[nH]3)n3ncc(C4CC4)c3n2)C[C@H](C)N1` [Example 186, 8-cyclopropyl-2-[(3R,5S)-3,5-dimethylpiperazin-1-yl]-N-[(4-fluoro-1H-benzimidazol-2-yl)methyl]pyrazolo[1,5-a][1,3,5]triazin-4-amine] was tested, and the DC50 [1] was 0.226 nM, the “(IC50 CDK12 high ATP) to (Degradation DC50 CDK12) ratio” value [1] was 12018 and the IC50 [3] was > 20000 nM.

For `Fc1cccc2[nH]c(CNc3nc(N4C[C@@H]5C[C@H]4CO5)nc4c(C5CC5)cnn34)nc12` [Example 183, 8-cyclopropyl-N-[(4-fluoro-1H-benzimidazol-2-yl)methyl]-2-[(1S,4S)-2-oxa-5-azabicyclo[2.2.1]heptan-5-yl]pyrazolo[1,5-a][1,3,5]triazin-4-amine], the DC50 [1] was 1.65 nM, the “(IC50 CDK12 high ATP) to (Degradation DC50 CDK12) ratio” value [1] was 6199 and the IC50 [3] was > 20000 nM.

`C[C@@H]1CN(c2nc(NCc3nc4cc(F)ccc4[nH]3)n3ncc(C4CC4)c3n2)C[C@H](C)N1` [Example 175, 8-cyclopropyl-2-[(3R,5S)-3,5-dimethylpiperazin-1-yl]-N-[(5-fluoro-1H-benzimidazol-2-yl)methyl]pyrazolo[1,5-a][1,3,5]triazin-4-amine] was tested, and the DC50 [1] was 0.322 nM, the “(IC50 CDK12 high ATP) to (Degradation DC50 CDK12) ratio” value [1] was 34272 and the IC50 [3] was > 20000 nM.

For `Cc1ccc2[nH]c(CNc3nc(N4CCOCC4)nc4c(C5CC5)cnn34)nc2c1` [Example 193, 8-cyclopropyl-N-[(5-methyl-1H-benzimidazol-2-yl)methyl]-2-(morpholin-4-yl)pyrazolo[1,5-a][1,3,5]triazin-4-amine], the DC50 [1] was 2.68 nM, the “(IC50 CDK12 high ATP) to (Degradation DC50 CDK12) ratio” value [1] was 653 and the IC50 [3] was > 20000 nM.

`Fc1ccc2[nH]c(CNc3nc(N4C[C@@H]5CCCN[C@@H]5C4)nc4c(C5CC5)cnn34)nc2c1` [Example 180, 8-cyclopropyl-N-[(5-fluoro-1H-benzimidazol-2-yl)methyl]-2-[(4aS, 7aS)-octahydro-6H-pyrrolo[3,4-b]pyridin-6-yl]pyrazolo[1,5-a][1,3,5]triazin-4-amine] was tested, and the DC50 [1] was 1.59 nM, the “(IC50 CDK12 high ATP) to (Degradation DC50 CDK12) ratio” value [1] was 10852 and the IC50 [3] was > 20000 nM.

For `Cc1ccc2[nH]c(CNc3nc(N4C[C@@H]5CCCN[C@@H]5C4)nc4c(C5CC5)cnn34)nc2c1` [Example 195, 8-cyclopropyl-N-[(5-methyl-1H-benzimidazol-2-yl)methyl]-2-[(4aS,7aS)-octahydro-6H-pyrrolo[3,4-b]pyridin-6-yl]pyrazolo[1,5-a][1,3,5]triazin-4-amine], the DC50 [1] was 2.18 nM, the “(IC50 CDK12 high ATP) to (Degradation DC50 CDK12) ratio” value [1] was 3781 and the IC50 [3] was > 20000 nM.

For `Brc1cnn2c(NCc3nc4ccccc4[nH]3)nc(N3CC4CCC3CN4)nc12` (stereo not shown) [Example 220, N-(1H-benzimidazol-2-ylmethyl)-8-bromo-2-(2,5-diazabicyclo[2.2.2]octan-2-yl)pyrazolo[1,5-a][1,3,5]triazin-4-amine], the DC50 [1] was 4.21 nM, the “(IC50 CDK12 high ATP) to (Degradation DC50 CDK12) ratio” value [1] was 1318 and the IC50 [3] was > 20000 nM.
